Patent publication US20170143674A1, “Use of Glutaryl Histamine for the Treatment of Respiratory Tract Diseases” (LTD "VALENTA-INTELLEKT", priority 2011, published 2017)
“Also recorded” adds a separate entry of the source. Where two headings read alike, the source gives them in different places. Marks after values point to notes of the source that are not given here.

Experiments:
[1] = system: acute rhinosinusitis induced by intranasal administration of formalin; type: in vivo, rat; details: for The number of caliciform cells within 1 mm of the mucosal membrane of the nasal septum: M ± m; for Mucopurulent catarrh (number of rats) / Mucous catarrh (number of rats) / Without changes (number of rats, mucous membrane in the nasal passages, macroscopic): n = 10
Experimental: Activity of glutaryl histamine was studied in an experimental model of acute rhinosinusitis (ARS).
Administration of 20 μl of 7.5% formalin to the rat nasal passages leads to the development of a clinical picture similar to the symptoms of acute rhinosinusitis in a human.
The tested medicament and reference medicaments were administered for 7 days after administration of 7.5% formalin. Normal saline solution was used as placebo. The animals were subjected to euthanasia on day 8 after induction of experimental acute rhinosinusitis by method of air embolism. During necropsy, nasal passages of all animals were sampled. The obtained material was placed into 10% neutral-buffered formalin for further histological analysis.
The mucous and submucous membranes of both nasal passages (respiratory and olfactory regions) of the experimental animals were subjected to a morphological analysis of the specific activity of glutaryl histamine.
After the clinical phase of the experiment, the material derived from the animals was subjected to the standard treatment to prepare histological paraffin sections with a thickness of 3 to 5 μm. The sections were stained with hematoxylin and eosin for a microscopic study. Comparison and histological analysis of changes were performed versus the group of intact rats.
The main pathological processes inherent in experimental acute rhinosinusitis, such as vascular congestion in mucous membrane, hyperplasia and necrosis of the epithelium, the number of caliciform cells within 1 mm of the mucous membrane in the nasal septum, were evaluated by a semi-quantitative method to evaluate the degree of pathophysiological changes in histological, histochemical and morphological studies.
The microscopic analysis of exudative disorder developed in rats with acute rhinitis was aimed at measuring the number of caliciform cells comprising acidic mucus (Table 3).

[2] = system: lacunar tonsillitis; assay: open randomized comparative trial in lacunar tonsillitis; type: in vivo, human; details: 90 mg per day for 5 days with standard therapy
Experimental: The effectiveness of glutaryl histamine for the treatment of lacunar tonsillitis was studied in an open randomized and comparative trial.
The trial included 60 patients which were under medical supervision. When admitted to hospital, patients were randomized into two groups by a random sampling technique. The patients of the first group (30 subjects) received glutaryl histamine in an amount of 90 mg (1 pill) per day for 5 days (450 mg course dose) and standard therapy comprising antibacterial medicaments (penicillin 1 g I.M. 4 times a day or cefasoline 1 g I.M. 3 times a day for 7 days) and nosotropic agents. The patients of the second group (30 subjects) received only standard therapy.
Laboratory analysis included: general blood test, determination of C-reactive protein, and microbiological analysis of tonsil smears. Laboratory data were analyzed on day 6 of the treatment. […]
Statistical treatment of the obtained results. Values of quantitative variables were expressed as M±SE, wherein M is a mean value, and SE is a standard error of the mean. […]

[3] = system: Escherichia coli (mouse-adapted strain 4300); assay: animal or person; type: in vivo, mice; details: for Mortality rate (%) / Survival rate (%): tenth day
Experimental: Escherichia coli (mouse-adaptedstrain 4300, Institute collection) was used as an infectious agent. Mice were infected intravenously.
Firstly, there were determined a lethal dose (LD100) of Escherichia coli to be intravenously administered to this line of mice with a certain weight. Fatal cases among mice were registered every day for ten days. […] For this purpose, mice were housed into cages (10 animals per cage) and infected with a lethal dose of Escherichia coli. One hour after each mouse was administered orally levofloxacin in doses of 1, 2, 4, 6, 8, 10, and 12 mg/kg. A group of mice infected with a lethal dose of Escherichia coli without the treatment was considered as a control group. Fatal cases among mice were registered every day for ten days.
The next step of the experiment was to study an effect of combined administration of glutaryl histamine and levofloxacin on a model of E. coli sepsis in mice.
In the experiment, mice were housed in following groups (10 animals per cage):
Glutaryl histamine was administered orally in the corresponding doses to mice of groups 3, 4, 5, 6, 7, and 8 for 5 days. Five day after, all groups of mice were intravenously administered 0.2 ml of Escherichia coli in the lethal dose. […] After infection and administration of levofloxacin, glutaryl histamine was administered to mice of groups 3-8 for additional 5 days. During the experiment, the animals were observed every day, and fatal cases were registered (see Table 14).

In the case of `O=C(O)CCCC(=O)NCCc1c[nH]cn1` [glutaryl histamine], the “The number of caliciform cells within 1 mm of the mucosal membrane of the nasal septum” value (shortened to “The number”) ([1]; Glutaryl histamine 9 mg/kg) is reported as 29.0 ± 2.7* **, the “Mucopurulent catarrh (number of rats)” value ([1]; Glutaryl histamine 9 mg/kg) is reported as 3 and the “Mucous catarrh (number of rats)” value ([1]; Glutaryl histamine 9 mg/kg) is reported as 4. The “Without changes (number of rats, mucous membrane in the nasal passages, macroscopic)” value (shortened to “Without changes”) ([1]; Glutaryl histamine 9 mg/kg) was 3, the “The number” value ([1]; Glutaryl histamine 27 mg/kg) was 19.6±2.4 and the “The number” value ([1]; Glutaryl histamine 27 mg/kg, listed as Glutaryl histamine) was 19.6 ± 2.4. For the same compound, the “Mucopurulent catarrh (number of rats)” value ([1]; Glutaryl histamine 27 mg/kg) was 1, the “Mucous catarrh (number of rats)” value ([1]; Glutaryl histamine 27 mg/kg) was 1 and the “Without changes” value ([1]; Glutaryl histamine 27 mg/kg) was 8. For the same compound, the “The number” value ([1]; Glutaryl histamine 45 mg/kg) was 23.9 ± 1.7* **, the “Mucopurulent catarrh (number of rats)” value ([1]; Glutaryl histamine 45 mg/kg) was 0 and the “Mucous catarrh (number of rats)” value ([1]; Glutaryl histamine 45 mg/kg) was 0. For the same compound, the “Without changes” value ([1]; Glutaryl histamine 45 mg/kg) was 10, the “tolerability / undesirable symptoms” value [2] was “well tolerated; also recorded: none of the cases had undesirable symptoms” and the died/survived animals ([3]; day 1, glutaryl histamine 15 mg/kg) was 0/10. For the same compound, the died/survived animals ([3]; day 1, glutaryl histamine 30 mg/kg) was 0/10, the died/survived animals ([3]; day 1, glutaryl histamine 45 mg/kg) was 0/10 and the died/survived animals ([3]; day 2, glutaryl histamine 15 mg/kg) was 0/10. For the same compound, the died/survived animals ([3]; day 2, glutaryl histamine 30 mg/kg) was 0/10, the died/survived animals ([3]; day 2, glutaryl histamine 45 mg/kg) was 1/9 and the died/survived animals ([3]; day 3, glutaryl histamine 15 mg/kg) was 0/10. The died/survived animals ([3]; day 3, glutaryl histamine 30 mg/kg) was 0/10, the died/survived animals ([3]; day 3, glutaryl histamine 45 mg/kg) was 1/9 and the died/survived animals ([3]; day 4, glutaryl histamine 15 mg/kg) was 1/9. The died/survived animals ([3]; day 4, glutaryl histamine 30 mg/kg) was 1/9, the died/survived animals ([3]; day 4, glutaryl histamine 45 mg/kg) was 3/7 and the died/survived animals ([3]; day 5, glutaryl histamine 15 mg/kg) was 2/8. For the same compound, the died/survived animals ([3]; day 5, glutaryl histamine 30 mg/kg) was 3/7, the died/survived animals ([3]; day 5, glutaryl histamine 45 mg/kg) was 5/5 and the died/survived animals ([3]; day 6, glutaryl histamine 15 mg/kg) was 5/5. For the same compound, the died/survived animals ([3]; day 6, glutaryl histamine 30 mg/kg) was 6/4, the died/survived animals ([3]; day 6, glutaryl histamine 45 mg/kg) was 7/3 and the died/survived animals ([3]; day 7, glutaryl histamine 15 mg/kg) was 6/4. The died/survived animals ([3]; day 7, glutaryl histamine 30 mg/kg) was 7/3, the died/survived animals ([3]; day 7, glutaryl histamine 45 mg/kg) was 8/2 and the died/survived animals ([3]; day 8, glutaryl histamine 15 mg/kg) was 8/2. For the same compound, the died/survived animals ([3]; day 8, glutaryl histamine 30 mg/kg) was 7/3, the died/survived animals ([3]; day 8, glutaryl histamine 45 mg/kg) was 9/1 and the died/survived animals ([3]; day 9, glutaryl histamine 15 mg/kg) was 8/2. The died/survived animals ([3]; day 9, glutaryl histamine 30 mg/kg) was 8/2, the died/survived animals ([3]; day 9, glutaryl histamine 45 mg/kg) was 9/1 and the died/survived animals ([3]; day 10, glutaryl histamine 15 mg/kg) was 8/2. The died/survived animals ([3]; day 10, glutaryl histamine 30 mg/kg) was 8/2, the died/survived animals ([3]; day 10, glutaryl histamine 45 mg/kg) was 9/1 and the “Mortality rate (%)” value ([3]; glutaryl histamine 15 mg/kg) was 80%. The “Survival rate (%)” value ([3]; glutaryl histamine 15 mg/kg) was 20%, the “Mortality rate (%)” value ([3]; glutaryl histamine 30 mg/kg) was 80% and the “Survival rate (%)” value ([3]; glutaryl histamine 30 mg/kg) was 20%. The “Mortality rate (%)” value ([3]; glutaryl histamine 45 mg/kg) was 90% and the “Survival rate (%)” value ([3]; glutaryl histamine 45 mg/kg) was 10%.
